Structures can show the parent of a compound that is named as a salt.

The values below come from US9475815B2, “Substituted benzothienyl-pyrrolotriazines and uses thereof” (Bayer Intellectual Property GmbH, priority 2012, dated 2016).

Test [1] deals with human FGFR-1 (Homo sapiens, UniProt P11362). The test is described as follows: FGFR-1 high ATP kinase assay (TR-FRET). Background: TR-FRET usually uses a lanthanide donor and a delayed reading to cut background.
The target in test [2] is human FGFR-3 (Homo sapiens (Human), UniProt P22607). In words: FGFR-3 kinase assay (TR-FRET). In kind it is biochemical. The conditions noted are these: 10 μM ATP, 15 min pre-incubation with enzyme.
In test [3] the test system is Human umbilical vein endothelial cells (HUVEC). In words: Inhibition of growth factor-mediated cell proliferation (hFGF-2). In kind it is cell-based. The settings on record: Homo sapiens, HUVEC, 72 h, 72 h exposure, hFGF-2 stimulated; from averaged pIC50 values. Here is the method:
Human umbilical vein endothelial cells (HUVEC) were obtained from Cellsystems (FC-0003) and grown in Vasculife VEGF complete medium (Cellsystems, LL-1020) containing 2% fetal bovine serum (FBS) at 37° C. and 5% CO2. The cells were used for proliferation assays up to passage 7.
The HUVEC cells were harvested using accutase (PAA, L11-007) and seeded in columns 2 to 12 of 96-well plates (Falcon MICROTEST tissue culture plate 96-well flat bottom, BD 353075, or μCLEAR-PLATE, black, 96-well, Greiner Bio-One, No. 655090) at a cell density of 2500 cells/well in 100 μl Vasculife VEGF complete medium with column 1 remaining empty as blank. Cells were allowed to incubate at 37° C. and 5% CO2 for at least 6 h. Then, the cells were washed once with PBS and starved overnight in Vasculife basal medium (Cellsystems, LM-0002) containing heparin, ascorbate and L-glutamine (components of the Vasculife Life Factors Kit, Cellsystems, LL-1020) as well as 0.2% FBS.
After about 18 h, the starving medium was discarded, and the cells were exposed for 72 h to 9 consecutive log or half-log concentrations of test compound in the range of 10 pM to 30 μM and to 5, 10 or 20 ng/ml hFGF-2 (recombinant human FGF basic, R&D Systems, 233-FB) in 100 μl starving medium. 10 mM stock solutions of test compounds in DMSO were diluted to 200× final concentration in DMSO resulting in a final DMSO concentration of 0.5% in all wells. Controls consisted of cells grown in starving medium only and of cells grown in hFGF-2 containing starving medium with 0.5% DMSO. To determine cell proliferation, 5 μl Alamar Blue solution (Biosource, DAL1100) was added to each well (1:20 dilution), and the cells were allowed to incubate for further 4 h at 37° C. and 5% CO2 before measuring fluorescence (ex. 535 nm, em. 595 nm) with a Spectrafluor Plus Tecan plate reader (XFLUOR4 version 4.20). In some experiments, an ATP Determination Kit (BIAFFIN GmbH, LBR-T100) was used according to the manufacturer's instructions. In each experiment, samples were assayed in triplicate, and the standard deviations were determined GraphPad Prism 5 software was used to analyze the data and to obtain IC50 values. All test compounds were assayed 2 to 10 times in independent experiments and similar results were obtained.

For test [4], the target named is human mTOR (Homo sapiens (Human), UniProt P42345). In words: mTOR kinase assay (TR-FRET, for comparative purposes). Type of test: biochemical. The conditions noted are these: read-out: mTOR % inhibition @ 1 μM, 1 μM test compound, 40 μM ATP, mean values.
human mTOR, sequence (P42345 1360-2549): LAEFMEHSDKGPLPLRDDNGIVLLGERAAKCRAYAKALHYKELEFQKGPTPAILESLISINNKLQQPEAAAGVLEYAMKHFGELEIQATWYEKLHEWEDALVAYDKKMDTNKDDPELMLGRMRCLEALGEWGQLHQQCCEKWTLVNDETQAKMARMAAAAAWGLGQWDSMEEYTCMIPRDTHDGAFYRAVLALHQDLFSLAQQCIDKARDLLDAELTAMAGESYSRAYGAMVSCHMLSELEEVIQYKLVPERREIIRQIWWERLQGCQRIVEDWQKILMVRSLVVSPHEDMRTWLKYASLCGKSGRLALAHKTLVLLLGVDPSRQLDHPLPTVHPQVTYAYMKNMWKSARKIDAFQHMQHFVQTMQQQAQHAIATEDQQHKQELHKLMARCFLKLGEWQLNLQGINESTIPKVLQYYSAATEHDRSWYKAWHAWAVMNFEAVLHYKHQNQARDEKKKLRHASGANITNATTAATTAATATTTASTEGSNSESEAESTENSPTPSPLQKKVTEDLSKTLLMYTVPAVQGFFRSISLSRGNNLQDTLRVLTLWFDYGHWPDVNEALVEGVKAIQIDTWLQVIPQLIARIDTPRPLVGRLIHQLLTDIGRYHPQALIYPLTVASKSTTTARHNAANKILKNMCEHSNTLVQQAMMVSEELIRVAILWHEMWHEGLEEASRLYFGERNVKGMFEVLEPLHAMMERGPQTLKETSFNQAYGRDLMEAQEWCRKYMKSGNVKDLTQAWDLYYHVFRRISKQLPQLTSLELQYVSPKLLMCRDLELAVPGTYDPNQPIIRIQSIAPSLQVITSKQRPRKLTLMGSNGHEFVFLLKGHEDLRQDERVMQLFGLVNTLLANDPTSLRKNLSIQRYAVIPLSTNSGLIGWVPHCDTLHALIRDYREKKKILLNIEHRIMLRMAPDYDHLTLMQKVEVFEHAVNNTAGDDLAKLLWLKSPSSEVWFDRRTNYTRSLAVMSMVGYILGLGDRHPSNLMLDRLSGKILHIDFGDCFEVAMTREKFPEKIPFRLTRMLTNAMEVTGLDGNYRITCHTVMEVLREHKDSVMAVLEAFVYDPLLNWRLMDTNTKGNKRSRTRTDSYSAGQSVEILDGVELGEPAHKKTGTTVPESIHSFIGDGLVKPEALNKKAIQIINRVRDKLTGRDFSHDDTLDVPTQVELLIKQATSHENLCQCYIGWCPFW

human FGFR-1, sequence (P11362 22-822 limits assumed): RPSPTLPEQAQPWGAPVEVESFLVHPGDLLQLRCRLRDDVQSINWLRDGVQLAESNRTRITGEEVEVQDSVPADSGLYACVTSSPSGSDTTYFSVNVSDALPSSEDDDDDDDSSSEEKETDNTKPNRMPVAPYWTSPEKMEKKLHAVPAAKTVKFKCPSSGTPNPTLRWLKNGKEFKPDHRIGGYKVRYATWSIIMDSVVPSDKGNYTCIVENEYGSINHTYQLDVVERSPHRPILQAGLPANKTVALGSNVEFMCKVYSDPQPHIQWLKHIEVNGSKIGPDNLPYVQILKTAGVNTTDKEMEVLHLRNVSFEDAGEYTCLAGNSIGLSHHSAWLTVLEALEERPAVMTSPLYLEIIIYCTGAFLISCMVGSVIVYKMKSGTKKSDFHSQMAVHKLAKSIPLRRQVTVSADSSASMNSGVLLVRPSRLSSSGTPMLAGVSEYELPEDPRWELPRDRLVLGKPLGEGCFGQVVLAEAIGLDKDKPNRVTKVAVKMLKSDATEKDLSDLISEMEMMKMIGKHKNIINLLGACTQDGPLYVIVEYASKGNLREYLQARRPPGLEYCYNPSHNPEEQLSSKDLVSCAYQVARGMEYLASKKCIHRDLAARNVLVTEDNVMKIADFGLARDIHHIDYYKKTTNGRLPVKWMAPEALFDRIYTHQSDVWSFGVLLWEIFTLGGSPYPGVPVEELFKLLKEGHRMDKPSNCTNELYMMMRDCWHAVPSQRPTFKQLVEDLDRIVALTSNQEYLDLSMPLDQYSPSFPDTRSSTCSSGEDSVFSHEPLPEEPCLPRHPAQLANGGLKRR
human FGFR-3, sequence (P22607 397-806): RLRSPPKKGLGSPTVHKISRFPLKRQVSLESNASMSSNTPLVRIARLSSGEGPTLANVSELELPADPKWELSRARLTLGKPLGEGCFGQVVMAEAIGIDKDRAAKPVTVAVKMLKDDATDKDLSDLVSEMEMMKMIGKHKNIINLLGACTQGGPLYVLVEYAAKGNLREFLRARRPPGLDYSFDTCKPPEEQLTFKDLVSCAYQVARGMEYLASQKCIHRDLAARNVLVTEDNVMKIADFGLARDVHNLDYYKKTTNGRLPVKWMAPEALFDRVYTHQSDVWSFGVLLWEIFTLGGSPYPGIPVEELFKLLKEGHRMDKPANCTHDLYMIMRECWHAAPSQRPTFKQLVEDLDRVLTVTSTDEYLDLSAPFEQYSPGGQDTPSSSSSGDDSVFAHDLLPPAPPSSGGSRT

By IC50 is commonly meant the midpoint of a concentration-inhibition curve. Low readings indicate greater potency in that assay, high ones weaker potency in that assay. What is called inhibition is the change of the read-out against control, counted positive when it falls. `COc1cc(C)cc2cc(-c3cc(C(=O)N4CCNCC4)n4ncnc(N)c34)sc12` [Example 99, [4-Amino-5-(7-methoxy-5-methyl-1-benzothiophen-2-yl)pyrrolo[2,1-f][1,2,4]triazin-7-yl]-(piperazin-1-yl)methanone dihydrochloride]: the IC50 in test [1] was found to be 90.4 nM; in test [2], 66.6 nM; in test [3], 270 nM. Also, the inhibition at 1 µM in test [4] was 9.9%.
The like results for `COc1cc(C)cc2cc(-c3cc(CN4CC[C@](C)(N)C4)n4ncnc(N)c34)sc12` [Example 5, 7-{[(3S)-3-Amino-3-methylpyrrolidin-1-yl]methyl}-5-(7-methoxy-5-methyl-1-benzothiophen-2-yl)pyrrolo[2,1-f][1,2,4]triazin-4-amine trihydrochloride] were, in that order, 1.1 nM, 7.4 nM, 48 nM and 18.8%.
The like results for `COc1cc(C)cc2cc(-c3cc(CN4CCN(C(=O)CO)CC4)n4ncnc(N)c34)sc12` [Example 96, 1-(4-{[4-Amino-5-(7-methoxy-5-methyl-1-benzothiophen-2-yl)pyrrolo[2,1-f][1,2,4]triazin-7-yl]-methyl}piperazin-1-yl)-2-hydroxyethanone] were, in that order, 12.6 nM, 11.9 nM, 72 nM and 37.9%.
On the same counts, the results for `COc1cc(C)cc2cc(-c3cc(CN4CC[C@H](N)C4)n4ncnc(N)c34)sc12` [Example 9, 7-{[(3S)-3-Aminopyrrolidin-1-yl]methyl}-5-(7-methoxy-5-methyl-1-benzothiophen-2-yl)pyrrolo[2,1-f][1,2,4]triazin-4-amine] are 4.7 nM, 7.4 nM, 145 nM and 24.2%.
For the compound `COc1cc(C)cc2cc(-c3cc(CNCC(N)=O)n4ncnc(N)c34)sc12` [Example 18], the IC50 in test [1] was 26.4 nM; in test [2], 7.8 nM; in test [3], 155 nM. Also, the inhibition at 1 µM in test [4] is 39.1%.
On the same counts, the results for `COc1cc(C)cc2cc(-c3cc(CNC(=O)CN)n4ncnc(N)c34)sc12` [Example 106, N-{[4-Amino-5-(7-methoxy-5-methyl-1-benzothiophen-2-yl)pyrrolo[2,1-f][1,2,4]triazin-7-yl]-methyl}glycinamide dihydrochloride] are 25.4 nM, 62.6 nM, 20 nM and 5.6%.
On the same counts, the results for `COc1cc(C)cc2cc(-c3cc(CN4CCC(NCC(C)O)C4)n4ncnc(N)c34)sc12` (stereo not shown) [Example 22] are 9.3 nM, 41.8 nM, 105 nM and 14%.
On the same counts, the results for `COc1cc(C)cc2cc(-c3cc(CN4CCCC(N(C)C)C4)n4ncnc(N)c34)sc12` (stereo not shown) [Example 86] are 4.6 nM, 9.6 nM, 37 nM and 33%.
As to `COc1cc(C)cc2cc(-c3cc(CN4CCOCC4)n4ncnc(N)c34)sc12` [Example 10, 5-(7-Methoxy-5-methyl-1-benzothiophen-2-yl)-7-(morpholin-4-ylmethyl)pyrrolo[2,1-f][1,2,4]-triazin-4-amine], the IC50 amounted to 94.9 nM in test [1], 77.7 nM in test [2] and 21 nM in test [3]. The inhibition at 1 µM in test [4] was found to be 28.1%.
On the same counts, the results for `COc1cc(C)cc2cc(-c3cc(C(=O)N4CCC[C@](C)(N)C4)n4ncnc(N)c34)sc12` [Example 105] are 20.4 nM, 25.7 nM, 137 nM and 17.1%.
Regarding `COc1cc(C)cc2cc(-c3cc(CN[C@H]4CCNC4=O)n4ncnc(N)c34)sc12` [Example 14], the results for the IC50 in test [1], in test [2] and in test [3] were 43.6 nM, 33.4 nM and 32 nM, respectively. For the same compound, the inhibition at 1 µM in test [4] was 30.6%.
The like results for `COc1cc(C)cc2cc(-c3cc(CN4CCC[C@H](N)C4)n4ncnc(N)c34)sc12` [Example 56] were, in that order, 17.5 nM, 22.6 nM, 169 nM and 32.1%.
On the same counts, the results for `CCN[C@H]1CCN(Cc2cc(-c3cc4cc(C)cc(OC)c4s3)c3c(N)ncnn23)C1` [Example 16] are 15.6 nM, 15.5 nM, 80 nM and 26.7%.
On the same counts, the results for `COc1cc(C)cc2cc(-c3cc(CN4CCNC(=O)CC4)n4ncnc(N)c34)sc12` [Example 20] are 54.7 nM, 24.8 nM, 110 nM and 35.6%.
Turning to `COc1cc(C)cc2cc(-c3cc(CN[C@@H]4CCNC4=O)n4ncnc(N)c34)sc12` [Example 6, (3R)-3-({[4-Amino-5-(7-methoxy-5-methyl-1-benzothiophen-2-yl)pyrrolo[2,1-f][1,2,4]triazin-7-yl]methyl}amino)pyrrolidin-2-one dihydrochloride], the IC50 in test [1] came out at 20.1 nM; in test [2], 21.7 nM; in test [3], 22 nM. Also, the inhibition at 1 µM in test [4] was determined as 33.5%.
On the same counts, the results for `CCN(CC)C1CCN(Cc2cc(-c3cc4cc(C)cc(OC)c4s3)c3c(N)ncnn23)C1` (stereo not shown) [Example 19] are 14.7 nM, 27.2 nM, 277 nM and 25.9%.
